Experimental data from publication PMC10038264, “A new family of glutamate-gated chloride channels in parasitic sea louse Caligus rogercresseyi: A subunit refractory to activation by ivermectin is dominant in heteromeric assemblies” (PLOS Pathogens, 2023).
Read-outs that look alike come from different tables or passages of the source.

Columns and labels:
CrGluCl-A = CrGluCl-A (Caligus rogercresseyi, UniProt A0A1W6LZ70); details: cited from earlier work
[1] = tested on: CrGluCl-B-Q279E-Y361F-Q327T triple mutant; test: Voltage-clamp of oocytes expressing CrGluCl-B triple mutant; assay type: cell-based, Caligus rogercresseyi
Text: To identify putative GluCl subunits, we queried the NCBI Transcriptome Shotgun Assembly Sequence (TSA) Database for “glutamate-gated chloride channel Caligus”. The obtained sequences were translated and BLASTed (tBLASTn) against the C. rogercresseyi genome (WGS, BioProject ID 280098, NCBI) and against transcripts of L. salmonis database (https://licebase.org/). Primers for each of the putative new subunit found were designed to span the full length of the open reading frame (ORF) for each of them (B-E) (S1 Table, and arrows in Fig 1). Complete cDNAs were generated by RT-PCR from adult C. rogercresseyi samples from which putative full-length peptide sequences of CrGluCl-B, CrGluCl-C, CrGluCl-D and CrGluCl-E were obtained. Each PCR product was cloned in pGEM-T easy vector and sequenced. To express the clones in Xenopus laevis oocytes, ORF of CrGluCl-B, -C, -D and -E were cloned in pGH19 vector from pGEM-Teasy/CrGluCl using the following restriction enzymes: BamHI and XbaI (-B) and EcoRI (-D and -E). CrGluCl-C was cloned first in pCR3.1 vector with NotI and then into pGH19 with SpeI/XbaI. The CrGluCl/pGH19 plasmid were linearized with NheI (-A and -B) or XhoI (-C, -D, -E) and used as template for the synthesis of capped cRNA (complementary RNA) using the mMessage Machine T7 kit. Mutations were made by site-directed mutagenesis using the QuickChange method and confirmed by sequencing. […]
(§1) Current measurements at controlled membrane potentials (voltage-clamp experiments) were performed using two intracellular microelectrodes in defolliculated Xenopus oocytes previously microinjected with 20 ng of cRNA. […] The oocytes were recorded in a chamber (Model RC-1Z, Warner Instrumenst, USA) under continuous superfusion. […] Currents were recorded continuously during the experiments without interruptions for solution changes. […] The signal filtered at 1 kHz was acquired with a Digidata 1440A Analog-to-Digital Converter and analyzed with Axon pClamp 10.6 software. […]

CrGluCl-E = test: Two-electrode voltage-clamp of Xenopus oocytes expressing CrGluCl-E; assay type: cell-based, Caligus rogercresseyi; details: CrGluCl-E alone; glutamate up to 1mM, 1μM ivermectin
Method: Adult female Xenopus laevis frogs were anaesthetized by immersion in a1g/L solution tricaine (Ethyl 3-aminobenzoate methanesulfonate, Sigma) buffered to pH 7 with NaHCO3. Surgery was performed 30–40 min later, once the frog was completely anaesthetized judging by loss of reflexes. Ovarian lobes were removed through 1 cm abdominal incision and then kept at 16°C in Barth’s modified solution containing (in mM): 88 NaCl, 1 KCl, 0.4 CaCl2, 0.3 Ca (NO3)2, 0.8 MgSO4, 2.4 NaHCO3, 5 Hepes, 2.5 sodium pyruvate, 100 μg/ml gentamicin sulfate, 100 U/ml penicillin, 100 μg/ml streptomycin, 250 μg/ml amphotericin B, 0.22μm filtered and adjusted to pH 7.5 with Tris-Base. Osmolarity was brought to 220 mOsm with saccharose. […]
as §1

HcGluClα = tested on: HcGluClα; set-up: method as in PMID 7935817, PMID 8702744, PMID 25994631; details: read-out: EC50 glutamate; cited from earlier work
[2] = tested on: coexpressed CrGluCl-C:CrGluCl-A; test: Voltage-clamp of oocytes coinjected with CrGluCl-C and CrGluCl-A; assay type: cell-based, Caligus rogercresseyi
Method: (§2) Adult female Xenopus laevis frogs were anaesthetized by immersion in a1g/L solution tricaine (Ethyl 3-aminobenzoate methanesulfonate, Sigma) buffered to pH 7 with NaHCO3. Surgery was performed 30–40 min later, once the frog was completely anaesthetized judging by loss of reflexes. Ovarian lobes were removed through 1 cm abdominal incision and then kept at 16°C in Barth’s modified solution containing (in mM): 88 NaCl, 1 KCl, 0.4 CaCl2, 0.3 Ca (NO3)2, 0.8 MgSO4, 2.4 NaHCO3, 5 Hepes, 2.5 sodium pyruvate, 100 μg/ml gentamicin sulfate, 100 U/ml penicillin, 100 μg/ml streptomycin, 250 μg/ml amphotericin B, 0.22μm filtered and adjusted to pH 7.5 with Tris-Base. Osmolarity was brought to 220 mOsm with saccharose. The oocytes were manually defolliculated on the same day of extraction and the following day 20 ng cRNA in nuclease-free water was injected into stage V-VI oocytes using a FemtoJet microinjector (Eppendorf). Finally, the injected oocytes were stored in 96 well plates containing Barth’s modified solution and kept at 16°C until experiment day.
(§3) Current measurements at controlled membrane potentials (voltage-clamp experiments) were performed using two intracellular microelectrodes in defolliculated Xenopus oocytes previously microinjected with 20 ng of cRNA. Voltage-clamp recording was performed at room temperature using a TURBO TEC-10CX amplifier (npi electronic GmbH, Tamm, Germany) and PClamp 10.6 software (Axon Instruments, USA), 1 to 4 days after oocyte injection. The oocytes were recorded in a chamber (Model RC-1Z, Warner Instrumenst, USA) under continuous superfusion. […] Reference was an Ag-AgCl electrode connected to the bath via a 3 M KCl in 3% agar bridge. Currents were recorded continuously during the experiments without interruptions for solution changes. […] The signal filtered at 1 kHz was acquired with a Digidata 1440A Analog-to-Digital Converter and analyzed with Axon pClamp 10.6 software. […]

[3] = tested on: coexpressed CrGluCl-E:CrGluCl-B; test: Voltage-clamp of oocytes coexpressing CrGluCl-E and CrGluCl-B; assay type: cell-based, Caligus rogercresseyi; details: for Iver response to activation: B:E ratio 1:1, 1μM ivermectin
Method: as §2, §3

Chain of CrGluCl-A (A0A1W6LZ70 entry or part of it): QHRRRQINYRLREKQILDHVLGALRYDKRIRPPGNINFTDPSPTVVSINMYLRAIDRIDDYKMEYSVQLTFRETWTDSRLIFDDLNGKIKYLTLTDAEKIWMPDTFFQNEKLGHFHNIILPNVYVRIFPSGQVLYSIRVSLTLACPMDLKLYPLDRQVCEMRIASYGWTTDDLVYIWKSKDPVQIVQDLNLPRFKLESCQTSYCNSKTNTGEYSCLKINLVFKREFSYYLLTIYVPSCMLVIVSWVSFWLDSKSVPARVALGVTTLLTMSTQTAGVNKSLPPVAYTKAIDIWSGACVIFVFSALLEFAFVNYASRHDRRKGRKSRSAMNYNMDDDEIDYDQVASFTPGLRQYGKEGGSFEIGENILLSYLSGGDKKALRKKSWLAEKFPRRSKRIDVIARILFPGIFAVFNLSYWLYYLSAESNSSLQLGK

Compound	nH (glutamate), previously published (CrGluCl-A)	EC50 (CrGluCl-A; read-out: EC50 Glutamate, previously published) [nM]	EC50 ([1]; read-out: EC50 glutamate) [µM]	response (current activation) (CrGluCl-E)	EC50 (HcGluClα) [µM]	EC50 ([2]; C:A 1:1, 60 mV, single Hill equation) [µM]	EC50 ([3]; B:E ratio 1:1, 60 mV) [µM]	nH (ivermectin) (CrGluCl-A)	EC50 (CrGluCl-A; listed as Ivermectin, read-out: EC50 Ivermectin / avermectin irreversible activation) [nM]	EC50 (CrGluCl-A; read-out: EC50 Ivermectin / avermectin irreversible activation) [nM]	nH (ivermectin) [1]	EC50 ([1]; read-out: EC50 ivermectin) [µM]	Iver response to activation ([2]; C:A 1:1, 60mV)	Iver response to activation ([2]; C:A 1:1, -80mV)	Iver response to activation [3]	Iver response to activation ([3]; listed as Iver)
N[C@@H](CCC(=O)O)C(=O)O [glutamate, L-glutamate]	1.33	6900	103 ± 133	failed to show any response	28	7.9 ± 0.9	534 ± 239									
ivermectin				failed to show any response				2.1	181	~200	1.6 ± 0.22	0.094 ± 0.054	Sensitive	Sensitive	without any activating effect	Insensitive
